Results on 19 compounds are retold here after EPA's ToxValDB 9.5.

The test system of one data set is Oryctolagus sp. The note with it: for LD50: acute, dermal; for NOAEL: reproduction developmental, duration: 21 days, oral, gavage.
Data set [1] relates to Rattus norvegicus.
In data set [2] the test system is Rattus norvegicus. The settings on record: for LEL: uterotrophic, Active; for NOEL / LOEL: Hershberger.
Where [3] appears, read: acute, oral, gavage, Sprague-Dawley.
[4] abbreviates: reproduction developmental, oral, gavage, Sprague-Dawley.
[5] abbreviates: subchronic, duration: 13 weeks, oral, gavage, Sprague-Dawley.
Where [6] appears, read: duration: 3 days, injection, subcutaneous.
Where [7] appears, read: duration: 12 days, injection, subcutaneous, Wistar, active + Androgenic + androgenic.
Setting [8] is: duration: 10 days, oral, gavage, Sprague-Dawley, active + Antiandrogenic + anti-androgenic.

“And” between values parts separate entries of the source, which are not always exact repeats. Equal values may be shown once.

Turning to `CCOP(=O)(CN(CCO)CCO)OCC` [Diethyl (N,N-bis(2-hydroxyethyl)amino)methanephosphonate], the LD50 (usually the dose expected to kill half of the subjects tested) is greater than 2000 mg/kg with Oryctolagus sp., greater than 2000 mg/kg in the data set on Oryctolagus sp. (Albino) and greater than 5000 mg/kg in the data set on Rattus norvegicus [1] (setting [3]). Besides, the LOAEL – broadly, the lowest dose or exposure tested at which an adverse effect was seen – was greater than 750 mg/kg-day in the data set on Rattus norvegicus [1] (setting [4]) and greater than 500 mg/kg-day in the data set on Rattus norvegicus [1] (setting [5]). For the same compound, the NOAEL (as a rule, the highest dose or exposure tested at which no adverse effect was seen) in the data set with Rattus norvegicus [1] (setting [4]) came to 750 mg/kg-day; in the data set on Rattus norvegicus [1] (setting [5]) it was 500 mg/kg-day.
Regarding `COc1c(Cl)ccc(Cl)c1C(=O)[O-].[Na+]` [Sodium dicamba], the LD50 was greater than 400 mg/kg in the data set with Oryctolagus sp. (occlusive, New Zealand) and greater than 1000 mg/kg in the data set on Rattus norvegicus [1] (acute, oral, Sprague-Dawley).
`Cl.O=C(c1ccc(OCCN2CCCCC2)cc1)c1c(-c2ccc(O)cc2)sc2cc(O)ccc12` [Raloxifene hydrochloride] returned an LEL in the data set on Rattus norvegicus [2] (setting [6]) of 0.5 mg/kg-day.
In the case of `O=S(=O)([O-])c1ccc(Nc2nc(Nc3ccc(/C=C/c4ccc(Nc5nc(Nc6ccc(S(=O)(=O)[O-])cc6)nc(N(CCO)CCO)n5)cc4S(=O)(=O)[O-])c(S(=O)(=O)[O-])c3)nc(N(CCO)CCO)n2)cc1.[Na+].[Na+].[Na+].[Na+]` [C.I. Fluorescent Brightener 220], the NOAEL with Oryctolagus sp. (F, New Zealand) was 100 mg/kg-day; with Oryctolagus sp. (New Zealand, generation: F1) it was 300 mg/kg-day and 800 mg/kg-day; in the data set on Rattus norvegicus [1] (chronic, duration: 104 weeks, oral, diet, F, Wistar), 780 mg/kg-day; in the data set on Rattus norvegicus [1] (chronic, duration: 104 weeks, oral, diet, M, Wistar), 780 mg/kg-day; in the data set with Rattus norvegicus [1] (reproduction developmental, duration: 9 months, oral, gavage, Sprague-Dawley, generation: F1), 1000 mg/kg-day; in the data set on Rattus norvegicus [1] (reproduction developmental, duration: 9 months, oral, gavage, Sprague-Dawley, generation: F2) it was 1000 mg/kg-day. The NOAEL in the data set with Rattus norvegicus [1] (reproduction developmental, duration: 13 days, oral, gavage, F, Sprague-Dawley) was determined as 1000 mg/kg-day; in the data set with Rattus norvegicus [1] (reproduction developmental, duration: 13 days, oral, gavage, Sprague-Dawley, generation: F1) it was 1000 mg/kg-day; in the data set with Rattus norvegicus [1] (reproduction developmental, oral, gavage, Sprague-Dawley, generation: F0), 1000 mg/kg-day; in the data set with Rattus norvegicus [1] (reproduction developmental, oral, gavage, Sprague-Dawley, generation: F1), 1000 mg/kg-day; with Rattus norvegicus [1] (subchronic, duration: 10 weeks, oral, gavage, F, Wistar) it was 500 mg/kg-day; in the data set with Rattus norvegicus [1] (subchronic, duration: 10 weeks, oral, gavage, M, Wistar), 500 mg/kg-day. Moreover, the LD50 with Rattus norvegicus [1] (acute, oral, gavage) was greater than 15000 mg/kg.
Turning to `CCCSP(=O)(OCC)SCCC` [Ethoprop], the NOEL in the data set with Rattus norvegicus [2] (duration: 10 days, oral, gavage, Sprague-Dawley, active + Negative + Antiandrogenic + anti-androgenic + decrease in serum testosterone, decrease in epididymal wt at 6 mg/kg / thyroid …) stood at 8 mg/kg-day.
For `CC(C)CCCCCCCOP(=S)([S-])OCCCCCCCC(C)C.CC(C)CCCCCCCOP(=S)([S-])OCCCCCCCC(C)C.[Zn+2]`, the LD50 with Oryctolagus sp. (New Zealand) was greater than 8000 mg/kg.
`C[C@]12CC[C@@H]3c4ccc(OC(=O)c5ccccc5)cc4CC[C@H]3[C@@H]1CC[C@@H]2O` [Estradiol benzoate]: the LOEL in the data set on Rattus norvegicus [2] (duration: 7 days, injection, subcutaneous, Wistar, active + Androgenic + androgenic) was 0.0025 mg/kg-day.
For the compound `O=c1oc2cc(O)ccc2c2oc3cc(O)ccc3c12` [Coumestrol], the LEL in the data set with Rattus norvegicus [2] (setting [6]) was 1 mg/day.
Consider `CC(C#N)CCC#N` (centres undefined) [2-Methylpentanedinitrile], for which the LD50 was 776 mg/kg in the data set with Oryctolagus sp. (New Zealand); 205 mg/kg and ≥ 174 mg/kg and ≤ 243 mg/kg in the data set on Rattus norvegicus [1] (acute, oral, Sprague-Dawley). The compound further displayed an NOAEL in the data set on Rattus norvegicus [1] (short-term, duration: 4 weeks, inhalation, Crl:CD(SD) BR) of 25 mg/m3.
As to `CCCC[N+](CC)(CCCC)CCCCCC[N+](CC)(CCCC)CCCC.[OH-].[OH-]`, the LD50 in the data set with Oryctolagus sp. (New Zealand) is 22.4 mg/kg; in the data set on Rattus norvegicus [1] (setting [3]), 350 mg/kg.
For `C[C@]12C=CC(=O)C[C@@H]1CC[C@@H]1[C@@H]2CC[C@@]2(C)[C@H]1CC[C@]2(C)O` [Methyl-1-testosterone], the LOEL with Rattus norvegicus [2] (duration: 10 days, injection, subcutaneous, Wistar, active + Androgenic + androgenic) is 1 mg/kg-day. Moreover, in the data set on Rattus norvegicus [2] (setting [7]), the LOEL is 0.3 mg/kg-day and the NOEL is 0.03 mg/kg-day.
In the case of `OC1CCCCC1` [Cyclohexanol], the LD50 was ≥ 501 mg/kg and ≤ 794 mg/kg in the data set with Oryctolagus sp. (New Zealand); 2060 mg/kg with Rattus norvegicus [1] (acute, oral, gavage, Carworth Wistar); 1550 mg/kg with Rattus norvegicus [1] (setting [3]). Further, the LC50 (as a rule, the concentration that kills 50% of the test population) with Rattus norvegicus [1] (acute, Inhalation, Sprague-Dawley) is greater than 3.63 µg/mL. In addition, the NOAEL in the data set on Rattus norvegicus [1] (developmental, inhalation, Sprague-Dawley) was found to be 614 mg/m3; in the data set with Rattus norvegicus [1] (reproduction developmental, duration: 10 weeks, inhalation, Sprague-Dawley, generation: F0), 614 mg/m3; in the data set with Rattus norvegicus [1] (reproduction developmental, duration: 10 weeks, inhalation, Sprague-Dawley, generation: F1) it was 614 mg/m3; in the data set with Rattus norvegicus [1] (reproduction developmental, duration: 13 weeks, inhalation, Sprague-Dawley), 614 mg/m3.
Take `CCCCCCCCc1ccc(O)cc1` [4-Octylphenol]: the LD50 with Rattus norvegicus [1] (acute, oral, gavage, albino) was 1100 mg/kg and 1200 mg/kg and 1400 mg/kg. Further, the LEL in the data set with Rattus norvegicus [2] (duration: 4 days, oral) is 100 mg/kg-day.
In the data set on Rattus norvegicus [2] (setting [6]), `CCOC(=O)c1ccc(O)cc1` [Ethylparaben] returned an LEL of 180 mg/kg-day.
Consider `Oc1ccccc1-c1ccccc1` [2-Phenylphenol], for which the NOEL in the data set with Rattus norvegicus [2] (duration: 10 days, oral, gavage, Sprague-Dawley, inactive + Negative + Negative + anti-androgenic + decrease in ASTs, NS (1.6 d) delay PPS / accompanied by "minor" increase in liver wt and…) stood at 250 mg/kg-day.
In the case of `CC#C[C@]1(O)CC[C@H]2[C@@H]3CCC4=CC(=O)CCC4=C3[C@@H](c3ccc(N(C)C)cc3)C[C@@]21C` [Mifepristone], in the data set with Rattus norvegicus [2] (setting [8]), the LOEL is 25 mg/kg-day and the NOEL came to 10 mg/kg-day. The LEL in the data set on Rattus norvegicus [2] (duration: 4 days, injection, intraperitoneal) amounted to 100 mg/kg-day.
In turn, `COC(=O)Nc1nc2ccccc2[nH]1` [Carbendazim] yielded an LD50 in the data set on Rattus norvegicus [1] (acute, oral, gavage, Harlan Sprague Dawley) greater than 5050 mg/kg. The NOEL in the data set with Rattus norvegicus [2] (duration: 10 days, oral, gavage, Wistar, inactive + Negative + Negative + Neither + effects on fertility, reduced testis/epididymal wt and abnormal histo in P0, fertility) is 100 mg/kg-day.
In turn, `CCOC(=O)C(C)(C)Oc1ccc(Cl)cc1` [Clofibrate] displayed an LEL with Rattus norvegicus [2] (duration: 3 days, oral) of 4 mg/kg-day.
Consider `CCCCC(CC)COC(=O)c1ccc(O)cc1` (centres undefined) [2-Ethylhexyl p-hydroxybenzoate], for which the LEL in the data set with Rattus norvegicus [2] (setting [6]) is 200 mg/kg-day and 199 mg/kg-day.
